Test results taken from US11370794B2, “Toll-like receptor antagonist compounds and methods of use” (Dynavax Technologies Corporation, priority 2016, dated 2022).

Experiments:
human TLR7 = molecular target: T1, human TLR7 (Homo sapiens, UniProt Q9NYK1); test: Inhibition of human TLR7 in human plasmacytoid dendritic cells (interferon-alpha ELISA); assay type: cell-based; conditions: agonist heat inactivated influenza virus, 24 hours
T1 construct: Human plasmacytoid dendritic cells were plated into 96 well plates; endogenous in cells; host or cells: primary human plasmacytoid dendritic cells from buffy coats of healthy donors
T1 sequence (Q9NYK1 27-1049): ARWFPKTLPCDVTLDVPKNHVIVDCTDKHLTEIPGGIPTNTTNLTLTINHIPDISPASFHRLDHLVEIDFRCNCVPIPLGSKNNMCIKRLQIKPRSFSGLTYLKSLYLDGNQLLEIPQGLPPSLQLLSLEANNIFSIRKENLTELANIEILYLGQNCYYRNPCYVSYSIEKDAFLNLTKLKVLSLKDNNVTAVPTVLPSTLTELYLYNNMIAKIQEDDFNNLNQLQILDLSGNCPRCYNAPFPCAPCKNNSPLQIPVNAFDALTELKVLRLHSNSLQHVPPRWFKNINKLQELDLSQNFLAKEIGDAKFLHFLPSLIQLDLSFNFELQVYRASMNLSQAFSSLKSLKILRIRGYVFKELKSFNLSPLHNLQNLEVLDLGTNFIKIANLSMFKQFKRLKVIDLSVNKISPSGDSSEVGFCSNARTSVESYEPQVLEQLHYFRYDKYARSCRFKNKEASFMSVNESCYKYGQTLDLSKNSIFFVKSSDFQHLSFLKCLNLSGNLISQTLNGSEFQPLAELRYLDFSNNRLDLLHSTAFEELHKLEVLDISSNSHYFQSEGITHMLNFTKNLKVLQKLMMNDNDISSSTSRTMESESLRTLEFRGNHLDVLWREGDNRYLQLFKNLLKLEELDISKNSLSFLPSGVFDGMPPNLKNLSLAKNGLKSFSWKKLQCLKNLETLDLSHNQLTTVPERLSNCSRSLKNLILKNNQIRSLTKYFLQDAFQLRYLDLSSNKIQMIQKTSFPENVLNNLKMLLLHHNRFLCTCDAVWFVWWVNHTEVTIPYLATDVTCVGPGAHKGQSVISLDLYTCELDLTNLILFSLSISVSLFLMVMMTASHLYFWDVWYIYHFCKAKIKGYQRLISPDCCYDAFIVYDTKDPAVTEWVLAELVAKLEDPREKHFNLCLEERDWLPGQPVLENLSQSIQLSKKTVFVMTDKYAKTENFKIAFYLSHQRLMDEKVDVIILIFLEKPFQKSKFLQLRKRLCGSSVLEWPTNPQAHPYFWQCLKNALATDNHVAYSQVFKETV

human TLR9 = molecular target: T2, human TLR9 (Homo sapiens, UniProt Q9NR96); test: Inhibition of human TLR9 in human B cells (IL-6 ELISA); assay type: cell-based; conditions: for IC50: human B cells, agonist 1018 ISS 1 μM, IL-6 readout, 48 hours, range about 0.01 to 10 μM, read-out: Human TLR9 IC50; for inhibits TLR9-dependent responses (in words): summary statement of the description
T2 construct: endogenous in cells; host or cells: primary human B cells (CD19 microbeads) from buffy coats of healthy donors
T2 sequence (Q9NR96 26-1032): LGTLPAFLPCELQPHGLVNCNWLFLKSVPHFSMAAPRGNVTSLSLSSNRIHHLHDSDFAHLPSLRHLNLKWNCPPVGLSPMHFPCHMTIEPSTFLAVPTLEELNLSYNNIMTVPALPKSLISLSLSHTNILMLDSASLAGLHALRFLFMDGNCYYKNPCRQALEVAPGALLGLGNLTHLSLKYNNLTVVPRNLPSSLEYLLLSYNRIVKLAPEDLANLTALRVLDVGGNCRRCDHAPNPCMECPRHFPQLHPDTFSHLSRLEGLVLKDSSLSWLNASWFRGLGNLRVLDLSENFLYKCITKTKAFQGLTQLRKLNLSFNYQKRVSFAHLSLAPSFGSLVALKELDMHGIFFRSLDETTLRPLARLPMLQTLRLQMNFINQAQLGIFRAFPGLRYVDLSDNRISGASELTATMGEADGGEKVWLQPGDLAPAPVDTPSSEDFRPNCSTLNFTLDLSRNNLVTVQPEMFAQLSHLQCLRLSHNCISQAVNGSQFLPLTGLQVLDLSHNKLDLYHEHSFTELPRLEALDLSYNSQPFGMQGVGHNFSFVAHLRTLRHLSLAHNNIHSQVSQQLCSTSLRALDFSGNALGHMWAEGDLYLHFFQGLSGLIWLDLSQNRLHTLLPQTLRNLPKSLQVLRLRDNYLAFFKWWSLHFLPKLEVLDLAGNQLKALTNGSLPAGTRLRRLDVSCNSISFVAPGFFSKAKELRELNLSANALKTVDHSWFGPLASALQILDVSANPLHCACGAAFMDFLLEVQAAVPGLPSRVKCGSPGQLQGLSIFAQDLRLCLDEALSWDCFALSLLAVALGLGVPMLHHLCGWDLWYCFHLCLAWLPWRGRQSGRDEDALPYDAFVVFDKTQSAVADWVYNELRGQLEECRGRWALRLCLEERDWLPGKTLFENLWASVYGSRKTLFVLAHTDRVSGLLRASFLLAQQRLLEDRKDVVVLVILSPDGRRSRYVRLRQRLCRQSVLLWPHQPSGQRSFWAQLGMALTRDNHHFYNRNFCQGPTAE
Procedure, shortened: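 Primary human B cells (CD19-isolated from donor buffy coats), ~300,000 per well, treated with compound (about 0.01–10 μM, some 0.001–30 μM) then 1 μM CpG oligonucleotide 1018 ISS. After 48 hours at 37° C, supernatant IL-6 measured by ELISA; IC50 from concentration-response of TLR9-dependent activity.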

Q: For `Cc1ccc(-n2nc3c(N4CCC(C(=O)NCC(C)(C)CNc5ccccc5)CC4)nnc(C)c3c2C)cc1` [2-1], which IC50 (human TLR7) is on record?
A: > 10000 nM

Q: And the IC50 (human TLR9)?
A: 4650 nM

Q: How did the IC50 (human TLR7) turn out when `Cc1ccc(-n2nc3c(N4CCC(C(=O)NCCCN(C)Cc5ccccc5)CC4)nnc(C)c3c2C)cc1` [Compound No. 1, N-(3-(benzyl(methyl)amino)propyl)-1-(3,4-dimethyl-2-(p-tolyl)-2H-pyrazolo[3,4-d]pyridazin-7-yl)piperidine-4-carboxamide] was run?
A: 2970 nM

Q: And the IC50 (human TLR9)?
A: 40 nM

Q: And the “inhibits TLR9-dependent responses (in words)” value (human TLR9)?
A: inhibit

Q: With `Cc1ccc(-n2nc3c(N4CCC(C(=O)N5CCN(Cc6ccccc6)CC5)CC4)nnc(C)c3c2C)cc1` [Compound No. 2, (4-benzylpiperazin-1-yl)(1-(3,4-dimethyl-2-(p-tolyl)-2H-pyrazolo[3,4-d]pyridazin-7-yl)piperidin-4-yl)methanone] as the compound, how does the IC50 (human TLR7) read?
A: 9930 nM

Q: What about the IC50 (human TLR9) of the same compound?
A: 242 nM

Q: What about the “inhibits TLR9-dependent responses (in words)” value (human TLR9) of the same compound?
A: inhibit

Q: Which IC50 (human TLR9) does the source give for `Cc1ccc(-n2nc3c(N4CCC(C(=O)NC5CN(C)C5)CC4)nnc(C)c3c2C)cc1` [Compound No. 3, 1-(3,4-dimethyl-2-(p-tolyl)-2H-pyrazolo[3,4-d]pyridazin-7-yl)-N-(1-methylazetidin-3-yl)piperidine-4-carboxamide] here?
A: 143 nM

Q: What does the source list for `Cc1ccc(-n2nc3c(N4CCC(C(=O)NC5CN(Cc6ccccc6)C5)CC4)nnc(C)c3c2C)cc1` [Compound No. 4, N-(1-benzylazetidin-3-yl)-1-(3,4-dimethyl-2-(p-tolyl)-2H-pyrazolo[3,4-d]pyridazin-7-yl)piperidine-4-carboxamide]?
A: IC50 (human TLR7): 3360 nM; IC50 (human TLR9): 93 nM; inhibits TLR9-dependent responses (in words) (human TLR9): inhibit

Q: With `Cc1ccc(-n2nc3c(N4CCC(C(=O)NCCCN(C)C)CC4)nnc(C)c3c2C)cc1` [Compound No. 5, 1-(3,4-dimethyl-2-(p-tolyl)-2H-pyrazolo[3,4-d]pyridazin-7-yl)-N-(3-(dimethylamino)propyl)piperidine-4-carboxamide] as the compound, how does the IC50 (human TLR7) read?
A: 2230 nM

Q: And the IC50 (human TLR9)?
A: 40 nM

Q: And the “inhibits TLR9-dependent responses (in words)” value (human TLR9)?
A: inhibit

Q: `Cc1ccc(-n2nc3c(N4CCC(C(=O)NCCCc5c[nH]cn5)CC4)nnc(C)c3c2C)cc1` [Compound No. 6, N-(3-(1H-imidazol-4-yl)propyl)-1-(3,4-dimethyl-2-(p-tolyl)-2H-pyrazolo[3,4-d]pyridazin-7-yl)piperidine-4-carboxamide] was tested. Which IC50 (human TLR7) did it give?
A: > 10000 nM

Q: What about the IC50 (human TLR9) of the same compound?
A: 154 nM

Q: Which results are given for `Cc1ccc(-n2nc3c(N4CCC(CCC(=O)NCCN(C)C)CC4)nnc(C)c3c2C)cc1` [Compound No. 9, 3-(1-(3,4-dimethyl-2-(p-tolyl)-2H-pyrazolo[3,4-d]pyridazin-7-yl)piperidin-4-yl)-N-(2-(dimethylamino)ethyl)propanamide]?
A: IC50 (human TLR7): > 10000 nM; IC50 (human TLR9): 3 nM
